Drawing on publication PMC12959773 (Protein & Cell, 2025), this text covers cystine uptake for one molecule.

Residue numbers refer to the chain shown, from its start.

What all share (assay): [2H]-cystine uptake, isotope tracking
Holding throughout (type): cell-based
Common to all, as to details: HEK293 cells transfected with SLC7A13 and SLC3A1; labelled compound

Assay [1] concerns the target T1, SLC7A13-SLC3A1 complex (Homo sapiens, UniProt Q8TCU3, S219A).
T1 construct: heterodimeric light/heavy chain transporter, dimer of heterodimers; ectopically expressed in HEK293T / HEK293 cells (Expi293 for cryo-EM); with Amino acid transporter heavy chain SLC3A1
T1 sequence (Q8TCU3 1-470 S219A): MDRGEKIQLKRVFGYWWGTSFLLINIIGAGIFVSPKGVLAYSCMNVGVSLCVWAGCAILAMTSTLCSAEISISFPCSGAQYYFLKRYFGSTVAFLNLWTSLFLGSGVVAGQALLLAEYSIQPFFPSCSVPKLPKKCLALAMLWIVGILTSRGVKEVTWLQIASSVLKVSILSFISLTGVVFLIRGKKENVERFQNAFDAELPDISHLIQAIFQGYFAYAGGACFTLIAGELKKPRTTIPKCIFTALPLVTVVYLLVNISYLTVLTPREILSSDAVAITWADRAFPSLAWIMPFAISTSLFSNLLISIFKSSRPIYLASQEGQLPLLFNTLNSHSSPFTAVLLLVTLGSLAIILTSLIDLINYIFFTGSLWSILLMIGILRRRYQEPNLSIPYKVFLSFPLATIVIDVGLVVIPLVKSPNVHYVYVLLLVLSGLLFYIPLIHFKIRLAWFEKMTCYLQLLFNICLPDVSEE
T1 sequence (Q07837 1-685 partner): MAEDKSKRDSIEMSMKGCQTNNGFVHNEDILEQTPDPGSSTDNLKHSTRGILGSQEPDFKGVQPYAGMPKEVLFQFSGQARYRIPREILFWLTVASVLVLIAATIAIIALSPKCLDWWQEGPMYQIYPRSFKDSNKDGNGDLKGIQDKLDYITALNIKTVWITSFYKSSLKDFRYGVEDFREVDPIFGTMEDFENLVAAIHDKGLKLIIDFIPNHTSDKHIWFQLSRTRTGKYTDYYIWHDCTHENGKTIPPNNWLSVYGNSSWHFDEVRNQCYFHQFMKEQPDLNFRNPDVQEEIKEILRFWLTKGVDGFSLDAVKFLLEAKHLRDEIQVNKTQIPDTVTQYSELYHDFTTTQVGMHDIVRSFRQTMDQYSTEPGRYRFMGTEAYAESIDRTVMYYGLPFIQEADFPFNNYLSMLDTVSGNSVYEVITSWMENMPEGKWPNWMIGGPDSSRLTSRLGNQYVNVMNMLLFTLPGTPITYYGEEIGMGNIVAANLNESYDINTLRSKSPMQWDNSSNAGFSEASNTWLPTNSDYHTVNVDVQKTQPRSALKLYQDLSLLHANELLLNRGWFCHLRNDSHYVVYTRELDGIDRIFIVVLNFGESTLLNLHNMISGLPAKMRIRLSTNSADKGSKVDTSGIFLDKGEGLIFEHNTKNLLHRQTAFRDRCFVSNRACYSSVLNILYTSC

The target of assay [2] is T2, SLC7A13-SLC3A1 complex (Homo sapiens, UniProt Q8TCU3, S306A).
T2 construct: heterodimeric light/heavy chain transporter, dimer of heterodimers; ectopically expressed in HEK293T / HEK293 cells (Expi293 for cryo-EM); with Amino acid transporter heavy chain SLC3A1
T2 sequence (Q8TCU3 1-470 S306A): T1 sequence (Q8TCU3 1-470 S219A) with A219S, S306A
T2 sequence (Q07837 1-685 partner): T1 sequence (Q07837 1-685 partner)

Assay [3] concerns the target T3, SLC7A13-SLC3A1 complex (Homo sapiens, UniProt Q8TCU3, K309A).
T3 construct: heterodimeric light/heavy chain transporter, dimer of heterodimers; ectopically expressed in HEK293T / HEK293 cells (Expi293 for cryo-EM); with Amino acid transporter heavy chain SLC3A1
T3 sequence (Q8TCU3 1-470 K309A): T1 sequence (Q8TCU3 1-470 S219A) with A219S, K309A
T3 sequence (Q07837 1-685 partner): T1 sequence (Q07837 1-685 partner)

`N[C@@H](CSSC[C@H](N)C(=O)O)C(=O)O` [cystine]: the cystine uptake result in assay [1], in assay [2] and in assay [3] was “mutation in any of the seven SLC7A13-specific residues to alanine significantly reduced SLC7A13’s transporter activities” throughout.
